The record followed here is patent US20240174679A1, “HETEROAROYL AMIDES AS LRRK2 INHIBITORS, PHARMACEUTICAL COMPOSITIONS, AND USES THEREOF” (MERCK SHARP & DOHME LLC, priority 2021, published 2024).

This assay deals with GST tagged truncated human mutant G2019S LRRK2 (Homo sapiens (Human), UniProt Q5S007, G2019S). The assay is described as follows: LRRK2 Km ATP LanthaScreen Assay. Format: biochemical. The settings on record: 134 μM ATP (Km ATP), LRRKtide substrate, negative log of mean IC50 (molar). An outline of the steps: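 Truncated GST-tagged G2019S LRRK2 (1.25 nM enzyme solution) was preincubated with compound for 15 min at rt, then reacted for 90 min with fluorescein-LRRKtide and 134 μM ATP (Km) in Tris pH 8.5/MgCl2 buffer. After an EDTA stop, TR-FRET used a Tb anti-pERM antibody (520/495 nm ratio). IC50 came from a 4-parameter fit and is reported as pIC50, mean of several runs.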
Sequence of GST tagged truncated human mutant G2019S LRRK2 (Q5S007 970-2527 G2019S): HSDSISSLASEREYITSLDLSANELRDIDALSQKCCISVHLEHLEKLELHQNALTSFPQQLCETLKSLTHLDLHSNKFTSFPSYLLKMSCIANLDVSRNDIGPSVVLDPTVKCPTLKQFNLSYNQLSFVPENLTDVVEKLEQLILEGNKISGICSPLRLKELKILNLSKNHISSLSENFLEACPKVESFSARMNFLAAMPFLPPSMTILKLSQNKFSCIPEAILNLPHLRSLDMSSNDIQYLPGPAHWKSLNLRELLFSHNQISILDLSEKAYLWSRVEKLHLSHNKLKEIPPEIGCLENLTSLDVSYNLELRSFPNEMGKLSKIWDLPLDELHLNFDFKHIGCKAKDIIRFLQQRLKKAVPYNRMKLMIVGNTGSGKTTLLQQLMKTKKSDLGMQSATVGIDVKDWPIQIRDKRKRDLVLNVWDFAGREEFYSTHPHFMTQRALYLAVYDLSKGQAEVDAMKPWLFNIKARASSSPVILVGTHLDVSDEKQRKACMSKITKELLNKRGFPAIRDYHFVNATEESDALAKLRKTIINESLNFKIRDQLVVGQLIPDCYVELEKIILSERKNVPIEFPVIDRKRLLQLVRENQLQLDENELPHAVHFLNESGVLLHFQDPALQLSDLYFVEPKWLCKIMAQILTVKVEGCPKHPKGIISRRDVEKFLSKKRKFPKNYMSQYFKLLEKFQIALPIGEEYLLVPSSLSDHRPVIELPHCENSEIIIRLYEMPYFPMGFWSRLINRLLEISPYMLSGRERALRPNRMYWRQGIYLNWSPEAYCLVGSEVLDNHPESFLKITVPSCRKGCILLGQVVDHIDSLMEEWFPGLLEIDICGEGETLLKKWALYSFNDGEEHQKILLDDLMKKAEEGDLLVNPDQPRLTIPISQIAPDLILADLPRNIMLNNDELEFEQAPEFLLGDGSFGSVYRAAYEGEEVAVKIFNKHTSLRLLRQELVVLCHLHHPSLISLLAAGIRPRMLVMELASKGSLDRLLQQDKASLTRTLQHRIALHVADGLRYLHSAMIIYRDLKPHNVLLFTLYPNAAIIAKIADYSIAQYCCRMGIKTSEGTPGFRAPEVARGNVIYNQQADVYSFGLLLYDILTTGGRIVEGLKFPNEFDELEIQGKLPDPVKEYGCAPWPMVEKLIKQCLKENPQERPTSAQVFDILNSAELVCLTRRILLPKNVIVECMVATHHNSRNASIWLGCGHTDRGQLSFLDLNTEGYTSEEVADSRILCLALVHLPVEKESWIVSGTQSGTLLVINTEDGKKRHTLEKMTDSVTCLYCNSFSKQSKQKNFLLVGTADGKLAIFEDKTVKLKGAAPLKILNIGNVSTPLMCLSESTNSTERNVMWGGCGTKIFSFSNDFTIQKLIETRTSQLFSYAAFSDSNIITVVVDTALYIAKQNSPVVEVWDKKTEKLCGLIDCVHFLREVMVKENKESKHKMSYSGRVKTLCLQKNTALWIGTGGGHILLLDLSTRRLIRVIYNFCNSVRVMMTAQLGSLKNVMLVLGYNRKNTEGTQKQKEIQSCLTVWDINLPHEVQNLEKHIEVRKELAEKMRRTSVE
(Time-resolved FRET reads energy transfer from a long-lived donor to a nearby acceptor.)
Take `O=C(Nc1cnn(CC2C3CCC2CNC3)c1)c1csc(-c2cn[nH]c2)n1` (centres unmarked) [Example 7-43, N-{1-[(3-azabicyclo[3.2.1]octan-8-yl)methyl]-1H-pyrazol-4-yl}-2-(1H-pyrazol-4-yl)-1,3-thiazole-4-carboxamide]: the “LRRK2 pIC50” value turned out to be 6.87.

Consider `Cc1cc(-n2cc(NC(=O)c3csc(-c4cn[nH]c4)n3)cn2)ccn1` [Example 8-1, N-(1-(2-Methylpyridin-4-yl)-1H-pyrazol-4-yl)-2-(1H-pyrazol-4-yl)thiazole-4-carboxamide], for which the “LRRK2 pIC50” value is 7.90. For the compound `Cc1cnccc1-n1cc(NC(=O)c2csc(-c3cn[nH]c3)n2)cn1` [Example 8-2, N-[1-(3-methylpyridin-4-yl)-1H-pyrazol-4-yl]-2-(1H-pyrazol-4-yl)-1,3-thiazole-4-carboxamide], the “LRRK2 pIC50” value amounted to 7.74. With `CC(C)c1cc(-n2cc(NC(=O)c3csc(-c4cn[nH]c4)n3)cn2)ccn1` [Example 8-3, N-{1-[2-(1-methylethyl)pyridin-4-yl]-1H-pyrazol-4-yl}-2-(1H-pyrazol-4-yl)-1,3-thiazole-4-carboxamide], the “LRRK2 pIC50” value was found to be 7.89. As for `Cc1cc(-n2cc(NC(=O)c3csc(-c4cn[nH]c4)n3)cn2)cc(C)n1` [Example 8-4, N-[1-(2,6-dimethylpyridin-4-yl)-1H-pyrazol-4-yl]-2-(1H-pyrazol-4-yl)-1,3-thiazole-4-carboxamide], the figure is 7.82; as for `Cn1cc(-c2cccc(C(=O)Nc3cnn(C4CCC4)c3)n2)cn1` [Example 9-1, N-(1-Cyclobutyl-1H-pyrazol-4-yl)-6-(1-methyl-1H-pyrazol-4-yl)picolinamide], 7.27.

In the case of `O=C(Nc1cnn(CC2CCC2)c1)c1cccc(-c2cncnc2)n1` [Example 9-2, N-[1-(cyclobutylmethyl)-1H-pyrazol-4-yl]-6-pyrimidin-5-ylpyridine-2-carboxamide], the “LRRK2 pIC50” value is recorded as 5.74. Turning to `O=C(Nc1cnn(C2CCC2)c1)c1csc(-c2cnn3c2CCC3)n1` [Example 9-3, N-(1-cyclobutyl-1H-pyrazol-4-yl)-2-(5,6-dihydro-4H-pyrrolo[1,2-b]pyrazol-3-yl)-1,3-thiazole-4-carboxamide], the “LRRK2 pIC50” value was found to be 8.01. As for `CCn1cc(-c2nc(C(=O)Nc3cnn(C4CCC4)c3)cs2)cn1` [Example 9-4, N-(1-cyclobutyl-1H-pyrazol-4-yl)-2-(1-ethyl-1H-pyrazol-4-yl)-1,3-thiazole-4-carboxamide], the figure is 7.41.

Consider `O=C(Nc1cnn(CC2CCC2)c1)c1cccc(-c2ccoc2)n1` [Example 9-5, N-[1-(cyclobutylmethyl)-1H-pyrazol-4-yl]-6-furan-3-ylpyridine-2-carboxamide], for which the “LRRK2 pIC50” value was found to be 5.79. As for `O=C(Nc1cnn(CC2CCC2)c1)c1cccc(-c2cnn(Cc3ccncc3)c2)n1` [Example 9-6, N-[1-(cyclobutylmethyl)-1H-pyrazol-4-yl]-6-[1-(pyridin-4-ylmethyl)-1H-pyrazol-4-yl]pyridine-2-carboxamide], the figure is 6.18; as for `CC1COc2c(-c3cccc(C(=O)Nc4cnn(CC5CCC5)c4)n3)cnn2C1` (centres unmarked) [Example 9-7, N-[1-(cyclobutylmethyl)-1H-pyrazol-4-yl]-6-(6-methyl-6,7-dihydro-5H-pyrazolo[5,1-b][1,3]oxazin-3-yl)pyridine-2-carboxamide], 6.87. Next, `O=C(Nc1cnn(CC2CCC2)c1)c1cccc(-c2cnn(Cc3ccccn3)c2)n1` [Example 9-8, N-[1-(cyclobutylmethyl)-1H-pyrazol-4-yl]-6-[1-(pyridin-2-ylmethyl)-1H-pyrazol-4-yl]pyridine-2-carboxamide]: 6.54; `Cn1cnc(-c2nc(C(=O)Nc3cnn(C4CCC4)c3)cs2)c1` [Example 9-9, N-(1-cyclobutyl-1H-pyrazol-4-yl)-2-(1-methyl-1H-imidazol-4-yl)-1,3-thiazole-4-carboxamide]: 8.04.
